Results taken from patent US8729269B2, “Substituted piperidino phenyloxazolidinones having antimicrobial activity with improved in vivo efficacy” (Wockhardt Limited, priority 2003, dated 2014).
≈ marks a conversion by molar mass, not a printed value.

Assays:
[1] = system: Methicilin resistant Staphylococcus aureus 32 (MRSA 32); assay: Minimum Inhibitory Concentration (MIC) determination, agar dilution; assay type: cell-based; settings: Mueller Hinton agar, 24 hrs at 35° C.
Protocol: (§1) Overnight grown cultures of Methicilin resistant Staphylococcus aureus 32 (MRSA 32), Methicilin resistant Staphylococcus epidermidis 118 (MRSE 118), Vancomycin resistant enterococci 303 (VRE 303) in Tryptic Soya broth were diluted in Mueller Hinton Broth to give optical density matching with MacFarland tube 0.5 standard. Cultures were further diluted 1:10 in Mueller Hinton broth. Using Denley's multipoint inoculator, 10^4 cells were deposited on Mueller Hinton agar (Difco) containing range of 2 fold dilutions of test compounds. These plates were incubated for 24 hrs at 35° C. and MIC results recorded. MIC is defined as minimum drug concentration that inhibits test organisms. For determining MIC of test compounds against Streptococcus pneumoniae 49619 (SPN 49619) and Streptococcus pyogenes 801 (SPY 801), Mueller Hinton agar containing 5% sheep blood was employed.

[2] = system: Methicilin resistant Staphylococcus epidermidis 118 (MRSE 118); assay: as above; assay type: cell-based; settings: Mueller Hinton agar, 24 hrs at 35° C.
Protocol: as §1

[3] = system: Vancomycin resistant enterococci 303 (VRE 303); assay: as above; assay type: cell-based; settings: Enterococcus, Mueller Hinton agar, 24 hrs at 35° C.
Protocol: as §1

[4] = system: Streptococcus pneumoniae 49619 (SPN 49619); assay: Minimum Inhibitory Concentration (MIC) determination, agar with 5% sheep blood; assay type: cell-based; settings: Mueller Hinton agar containing 5% sheep blood
Protocol: as §1

[5] = system: Streptococcus pyogenes 801 (SPY 801); assay: as above; assay type: cell-based; settings: Mueller Hinton agar containing 5% sheep blood
Protocol: as §1

[6] = system: methicillin resistant Staphylococcus aureus strain MRSA 32; assay: Murine Assay Procedure (in vivo efficacy, MRSA 32 infection); settings: swiss mice infected intraperitoneally with MRSA 32, oral gavage 1 h after infection, repeat dose 3 hrs later, percentage survival on Day 7
Protocol: Oxazolidinone new chemical entities (NCEs) were evaluated for their in vivo efficacy in a murine infection caused by multi-drug resistant, methicillin resistant Staphylococcus aureus strain, referred to as MRSA 32, a clinical isolate obtained from a hospitalized patient. The procedure used for the murine assay is as follows:
Four weeks old swiss mice of 18-22 gm body weight were infected with MRSA 32 strain suspended in 5% Hog gastric mucin. The infecting dose of bacteria was set at 1-2×10^8 CFU/animal. The infecting dose was administered in 0.5 ml volume injected into peritonial cavity of mice. The treatment with oxazolidinone NCEs was started one hour after infection by administering 100-200 μl of the suspensions of oxazolidinone compounds in 5% Tween 80 by oral gavage. A repeat dose was similarly administered 3 hrs later. Each oxazolidinone NCE was tested at 2-3 different dosages in the range of 2.5 mg/kg to 20 mg/kg. In each dose group 6 mice were included. As an infection control group 12 mice were infected with MRSA 32 strain without giving any treatment. For compounds affording protection of MRSA infected mice, ED50 dosages were calculated on the basis of percentage survival on Day 7 after infection.

| Compound | MIC [1] [µg/mL] | MIC [2] [µg/mL] | MIC [3] [µg/mL] | MIC [4] [µg/mL] | MIC [5] [µg/mL] | ED50 [6] [mg/kg] |
| --- | --- | --- | --- | --- | --- | --- |
| COCC1(O)CCN(c2ccc(N3C[C@H](CNC(C)=O)OC3=O)cc2F)CC1 [Example 33, (S)—N-{3-[4-(4-Methoxymethyl-4-hydroxypiperidin-1-yl)-3-fluorophenyl]-2-oxo-oxazolidin-5-ylmethyl}-acetamide] | 8 (≈ 20.2 µM) | 4 (≈ 10.1 µM) | 4 (≈ 10.1 µM) | 2 (≈ 5.06 µM) | 2 (≈ 5.06 µM) | 10 |
| C=CCC1(O)CCN(c2ccc(N3C[C@H](COS(C)(=O)=O)OC3=O)cc2F)CC1 [Example 41] | 8 (≈ 18.7 µM) | 8 (≈ 18.7 µM) | 8 (≈ 18.7 µM) | 16 (≈ 37.3 µM) | 16 (≈ 37.3 µM) | 10 |
| CS(=O)(=O)OC[C@H]1CN(c2ccc(N3CCC4(CC3)COCO4)c(F)c2)C(=O)O1 [Example 129, (R)—N-{3-[4-(1,3-dioxa-8-aza-spiro[4.5]dec-8-yl)-3-fluorophenyl]-2-oxo-oxazolidin-5-ylmethyl}-methanesulfonate] | 8 (≈ 18.6 µM) | 4 (≈ 9.29 µM) | 16 (≈ 37.2 µM) | 8 (≈ 18.6 µM) | 8 (≈ 18.6 µM) | 5 |
| CC(=O)NC[C@H]1CN(c2ccc(N3CCC4(OCCO4)C(F)C3)c(F)c2)C(=O)O1 (stereo partly drawn) [Example 133, (S)—N-{3-[4-(1,4-dioxa-6-fluoro-8-aza-spiro[4.5]dec-8-yl)-3-fluorophenyl]-2-oxo-oxazolidin-5-ylmethyl}-acetamide] | 4 (≈ 9.72 µM) | 2 (≈ 4.86 µM) | 4 (≈ 9.72 µM) | 2 (≈ 4.86 µM) | 2 (≈ 4.86 µM) | 5 |
| CS(=O)(=O)OC[C@H]1CN(c2cc(F)c(N3CCC4(CC3)OCCO4)c(F)c2)C(=O)O1 [Example 146, (R)—N-{3-[4-(1,4-dioxa-8-aza-spiro[4.5]dec-8-yl)-3,5-difluorophenyl]-2-oxo-oxazolidin-5-ylmethyl}-methanesulfonate] | 4 (≈ 8.92 µM) | 2 (≈ 4.46 µM) | 4 (≈ 8.92 µM) | 4 (≈ 8.92 µM) | 4 (≈ 8.92 µM) | 2.5 |
| CC(=O)NC[C@H]1CN(c2ccc(N3CCC4(CC3)COCCO4)c(F)c2)C(=O)O1 [Example 160, (S)—N-{3-[4-(1,4-dioxa-9-aza-spiro[5.5]undec-9-yl)-3-fluorophenyl]-2-oxo-oxazolidin-5-ylmethyl}-acetamide] | 4 (≈ 9.82 µM) | 1 (≈ 2.45 µM) | 8 (≈ 19.6 µM) | 4 (≈ 9.82 µM) | 4 (≈ 9.82 µM) | 10 |
| CC(=O)NC[C@H]1CN(c2ccc(N3CCC4(CC3)COCCCO4)c(F)c2)C(=O)O1 [Example 164] | 4 (≈ 9.49 µM) | 2 (≈ 4.75 µM) | 8 (≈ 19 µM) | 4 (≈ 9.49 µM) | 4 (≈ 9.49 µM) | 10 |
| CS(=O)(=O)OC[C@H]1CN(c2ccc(N3CCC(=O)CC3)c(F)c2)C(=O)O1 [Example 168, (R)—N-{3-[4-(4-oxo-piperidin-1-yl)-3-fluorophenyl]-2-oxo-oxazolidin-5-ylmethyl}-methanesulfonate] | 4 (≈ 10.4 µM) | 2 (≈ 5.18 µM) | 4 (≈ 10.4 µM) | 4 (≈ 10.4 µM) | 4 (≈ 10.4 µM) | 10 |
| CS(=O)(=O)OC[C@H]1CN(c2ccc(N3CCC(O)CC3)c(F)c2)C(=O)O1 [Example 172, (R)—N-{3-[4-(4-hydroxy-piperidin-1-yl)-3-fluorophenyl]-2-oxo-oxazolidin-5-ylmethyl}-methanesulfonate] | 8 (≈ 20.6 µM) | 8 (≈ 20.6 µM) | 16 (≈ 41.2 µM) | > 8 | > 8 | 10 |
| CC(=O)NC[C@H]1CN(c2ccc(N3CCC(O)(CN=[N+]=[N-])CC3)cc2)C(=O)O1 [Example 178, (S)—N-{3-[4-(4-azidomethyl-4-hydroxy-piperidin-1-yl)-phenyl]-2-oxo-oxazolidin-5-ylmethyl}-acetamide] | 4 (≈ 10.3 µM) | 2 (≈ 5.15 µM) | 8 (≈ 20.6 µM) | 4 (≈ 10.3 µM) | 4 (≈ 10.3 µM) | 10 |

Continued by falling MIC [1], values first:

| MIC [1] [µg/mL] | MIC [2] [µg/mL] | MIC [3] [µg/mL] | MIC [4] [µg/mL] | MIC [5] [µg/mL] | Compound | ED50 [6] [mg/kg] |
| --- | --- | --- | --- | --- | --- | --- |
| 4 (≈ 9.42 µM) | 1 (≈ 2.36 µM) | 2 (≈ 4.71 µM) | 2 (≈ 4.71 µM) | 2 (≈ 4.71 µM) | CC(=O)NC[C@H]1CN(c2ccc(N3CCC4(CC3)NCC[S+]4[O-])c(F)c2)C(=O)O1 (stereo partly drawn) [Example 112, (S)—N-{3-[4-(4,8-diaza-1-sulfinyl-spiro[4.5]dec-8-yl)-3-fluorophenyl]-2-oxo-oxazolidin-5-ylmethyl}-acetamide] | 10 |
| 4 (≈ 9.47 µM) | 1 (≈ 2.37 µM) | 4 (≈ 9.47 µM) | 2 (≈ 4.73 µM) | 2 (≈ 4.73 µM) | CC(=O)NC[C@H]1CN(c2ccc(N3CCC4(CC3)SCCN4C)c(F)c2)C(=O)O1 [Example 113, (S)—N-{3-[4-(8-aza-1-thia-4-(N-methyl)-spiro[4.5]dec-8-yl)-3-fluorophenyl]-2-oxo-oxazolidin-5-ylmethyl}-acetamide] | 10 |
| 4 (≈ 10.2 µM) | 2 (≈ 5.08 µM) | 4 (≈ 10.2 µM) | 2 (≈ 5.08 µM) | 2 (≈ 5.08 µM) | CC(=O)NC[C@H]1CN(c2ccc(N3CCC4(CC3)COCO4)c(F)c2)C(=O)O1 [Example 125, (S)—N-{3-[4-(1,3-dioxa-8-aza-spiro[4.5]dec-8-yl)-3-fluorophenyl]-2-oxo-oxazolidin-5-ylmethyl}-acetamide] | 10 |
| 4 (≈ 9.72 µM) | 2 (≈ 4.86 µM) | 4 (≈ 9.72 µM) | 2 (≈ 4.86 µM) | 2 (≈ 4.86 µM) | CC(=O)NC[C@H]1CN(c2cc(F)c(N3CCC4(CC3)OCCO4)c(F)c2)C(=O)O1 [Example 130, (S)—N-{3-[4-(1,4-dioxa-8-aza-spiro[4.5]dec-8-yl)-3,5-difluorophenyl]-2-oxo-oxazolidin-5-ylmethyl}-acetamide] | 5 |
| 2 (≈ 5.18 µM) | 1 (≈ 2.59 µM) | 2 (≈ 5.18 µM) | 1 (≈ 2.59 µM) | 1 (≈ 2.59 µM) | CC(=O)NC[C@H]1CN(c2ccc(N3CCC4(CC3)C[C@H]4C#N)c(F)c2)C(=O)O1 [Example 98, (1R,5S)—N-{3-[4-(1-cyano-6-aza-spiro[2.5]oct-6-yl)-3-fluorophenyl]-2-oxo-oxazolidin-5-ylmethyl}-acetamide] | 5 |
| 2 (≈ 5.18 µM) | 1 (≈ 2.59 µM) | 2 (≈ 5.18 µM) | 0.5 (≈ 1.29 µM) | 0.5 (≈ 1.29 µM) | CC(=O)NC[C@H]1CN(c2ccc(N3CCC4(CC3)C[C@@H]4C#N)c(F)c2)C(=O)O1 [Example 99, (1S,5S)—N-{3-[4-(1-cyano-6-aza-spiro[2.5]oct-6-yl)-3-fluorophenyl]-2-oxo-oxazolidin-5-ylmethyl}-acetamide] | 5 |
| 2 (≈ 4.92 µM) | 2 (≈ 4.92 µM) | 4 (≈ 9.84 µM) | 2 (≈ 4.92 µM) | 4 (≈ 9.84 µM) | CS(=O)(=O)OC[C@H]1CN(c2cc(F)c(N3CCC(O)CC3)c(F)c2)C(=O)O1 [Example 173, (R)—N-{3-[4-(4-hydroxy-piperidin-1-yl)-3,5-difluorophenyl]-2-oxo-oxazolidin-5-ylmethyl}-methanesulfonate] | 5 |
| 2 (≈ 4.71 µM) | 1 (≈ 2.36 µM) | 2 (≈ 4.71 µM) | 1 (≈ 2.36 µM) | 1 (≈ 2.36 µM) | CC(=O)NC[C@H]1CN(c2cc(F)c(N3CCC(O)(CN=[N+]=[N-])CC3)c(F)c2)C(=O)O1 [Example 186, (S)—N-{3-[4-(4-Azidomethyl-4-hydroxypiperidin-1-yl)-3,5-difluorophenyl]-2-oxo-oxazolidin-5-ylmethyl}-acetamide] | 5 |
| 2 (≈ 5.93 µM) | 1 (≈ 2.96 µM) | 2 (≈ 5.93 µM) | 2 (≈ 5.93 µM) | 2 (≈ 5.93 µM) | CC(=O)NC[C@H]1CN(c2ccc(N3CCOCC3)c(F)c2)C(=O)O1 [Linezolid, reference compound] | 5 |
| 1 (≈ 2.03 µM) | 0.5 (≈ 1.02 µM) | 0.4 (≈ 0.812 µM) | 0.8 (≈ 1.62 µM) | 0.8 (≈ 1.62 µM) | CC(=S)NC[C@H]1CN(c2ccc(N3CCC(C#N)(Nc4ccc(C#N)cc4)CC3)c(F)c2)C(=O)O1 [Example 87, (S)—N-{3-[4-(4-(1-(4-Cyanophenylamino))-4-cyanopiperidin-1-yl)-3-fluorophenyl]-2-oxo-oxazolidin-5-ylmethyl}-thioacetamide] | 10 |
| 0.5 (≈ 1.24 µM) | 0.25 (≈ 0.618 µM) | 1 (≈ 2.47 µM) | 0.5 (≈ 1.24 µM) | 2 (≈ 4.95 µM) | CS(=O)(=O)OC[C@H]1CN(c2cc(F)c(N3CCC(=O)CC3)c(F)c2)C(=O)O1 [Example 169, (R)—N-{3-[4-(4-oxo-piperidin-1-yl)-3,5-difluorophenyl]-2-oxo-oxazolidin-5-ylmethyl}-methanesulfonate] | 10 |
